Assay results published in patent US20250235410A1, “WATER-SOLUBLE CANNABIDIOL MICROCAPSULES AND PREPARATION METHOD THEREOF” (Northeast Agricultural University, priority 2022, published 2025).

Legend:
[1] = DPPH radical scavenging rate; format: biochemical; conditions: P<0.05
Experimental: (§1) The antioxidant activity of glycosylation product-based water-soluble cannabidiol microcapsules is analyzed through radical scavenging rate. The scavenging ability of 1,1-Diphenyl-2-picrylhydrazyl (DPPH) and, 2′-azino-bis (3-ethylbenzothiazoline-6-sulfonic acid (ABTS^+) radical cation is mainly studied.
Determination of DPPH radical scavenging rate: 1 mL of CBD with different concentrations, methanol solution of microcapsules with different concentrations and 4 mL of 0.1 mmol/L DPPH solution (DPPH dissolved in 95% ethanol) are mixed evenly, and kept in the dark for 30 min at room temperature. Using 95% ethanol as reference solution, the absorbance at 517 nm is read. The absorbance value of the sample mixed with DPPH ethanol solution is recorded as A, the absorbance value of the sample mixed with 95% ethanol solution is Ai, and the absorbance value of the single DPPH ethanol solution is Aj. The calculation formula is as follows: […]

[2] = ABTS+ radical cation scavenging rate; format: biochemical; conditions: P<0.05
Experimental: as §1
Determination of ABTS^+ radical scavenging rate: 10 mg of ABTS and 2.9 mg of potassium persulfate are taken, dissolved in 10 mL of 0.01 mol/L sodium phosphate buffer, and stored in the dark at 25° C. for 15 h for later use. 2.5 mL ABTS solution is taken, added with 20 mL of 0.01 mol/L sodium phosphate buffer, and diluted with distilled water so that the absorbance at 734 nm is 0.7, to obtain an ABTS analysis solution. 1 mL of CBD with different concentrations and methanol solutions of microcapsules with different concentrations are taken respectively, added with 2 mL of above ABTS analysis solution to the test tube for reacting for 10 min, and then 95% ethanol is used as reference solution to read the absorbance value at 734 nm. The absorbance value of the sample mixed with ABTS analysis solution is marked as A, the absorbance value of the sample mixed with 95% ethanol solution is Ai, and the absorbance value of the single ABTS analysis solution is Aj. The calculation formula is as follows: […]

[3] = Influence of temperature on stability (retention rate of CBD); format: physicochemical; conditions: 4-100 °C, sealed, dark, 12 h
Experimental: (§2) Determination of retention rate of CBD in MRPs-CBD microcapsules: the above method to determine CBD content in MRPs-CBD microcapsules is used to accurately determine the initial CBD content in MRPs-CBD microcapsules and the CBD content retained in microcapsules under different treatment methods, and the retention rate of CBD in microcapsules is calculated according to the following formula:
An appropriate amount of samples are weighed, placed in a sealed and dark environment at 4° C., 25° C., 37° C., 50° C., 80° C. and 100° C. for 12 h and taken out, and the retention rate of CBD is determined.

[4] = Influence of environmental pH value on stability (retention rate of CBD); format: physicochemical; conditions: 4 °C, 12 h
Experimental: as §2, with “formula: […]” for “formula:”
A proper amount of samples are weighed and dissolved in distilled water, and the pH values of the solutions are adjusted as 1, 2, 3, 4, 5, 6, 7, 8, 9, 10, 11 and 12 respectively, and samples are placed in a sealed and dark environment at 4° C. for 12 h, then taken out and its retention rate of CBD is determined.

[5] = Influence of oxygen on stability (retention rate of CBD); format: physicochemical; conditions: 15th day, dark, aerobic
Experimental: as §2, with “formula: […]” for “formula:”
An appropriate amount of samples are weighed, placed at 4° C. and 25° C. for 15 days in the dark and aerobic conditions, and taken out at on 1st, 3rd, 5th, 7th, 9th, 12th and 15th day to determine the retention rate of CBD. See FIG. 8A and FIG. 8B for the test results.

[6] = Influence of incandescent light on stability (retention rate of CBD); format: physicochemical; conditions: 15th day of incandescent light (25 W), 4 °C, sealed
Experimental: as §2, with “formula: […]” for “formula:”
A proper amount of samples are weighed, sealed, placed under incandescent light (25 W) at 4° C. for 15 d, and taken out on the 1st, 3rd, 6th, 9th, 12th and 15th day respectively, and the retention rate of CBD is determined.

[7] = Release in simulated gastric juice; format: in vitro ADME; conditions: 1 h in simulated gastric juice
Experimental: An appropriate amount of samples are weighed and released in simulated gastric juice. Samples are taken according to the time gradient of 0.5, 1.0, 1.5, 2.0, 2.5 and 3.0 h, and the cumulative release rate of CBD is determined.

[8] = Release in simulated intestinal juice; format: in vitro ADME; conditions: 1 h in simulated intestinal juice
Experimental: An appropriate amount of samples are weighed and released in simulated intestinal juice. Samples are taken according to the time gradient of 0.5, 1.0, 1.5, 2.0, 2.5 and 3.0 h, and the cumulative release rate of CBD is determined.

C=C(C)[C@@H]1CCC(C)=C[C@H]1c1c(O)cc(CCCCC)cc1O [unencapsulated CBD, Cannabidiol]
DPPH scavenging rate, change with increase of CBD concentration [1]: increase significantly
ABTS+ scavenging rate, change with increase of CBD concentration [2]: increase significantly
retention rate of CBD, trend with increase of temperature [3]: continuous downward trends
retention rate of CBD, trend ([4]; environmental pH increases from 1 to 6): increase significantly
retention rate of CBD, trend ([4]; environmental pH increases from 8 to 12): decrease significantly
retention rate of CBD ([5]; 4 °C): 43.87±1.83%
retention rate of CBD ([5]; 25 °C): 38.85±1.76%
retention rate of CBD [6]: 24.53±1.56%
fate of CBD in simulated gastric juice [7]: completely digested and degraded
fate of CBD in simulated intestinal juice [8]: completely digested and degraded
